Data set [1] deals with CD68+ macrophages and TNF-α in the colonic mucosa. As to the kind of experiment: Immunofluorescence of colonic mucosa before and after treatment: CD68+ macrophages, TNF-α, PDE4B. Conditions: for macrophage invasion in colonic mucosa: children with colitis or IBD, after vs before methylprednisolone or anti-TNF-α, FIG. 6C; for PDE4B: summary of immunological results after treatment. In kind it is in vivo, human.

The subject of data set [2] is activated ATF2 and CREB. In words: Immunofluorescence of colonic mucosa: activated ATF2 and CREB co-expressed with CD39. The class given is in vivo, human. The following applies: children, after vs before dipyridamole treatment. Here is the method:
[Worded in the source for another target; this target is reported under the same test.] Use formalin-fixed and paraffin-embedded paraffin blocks to prepare 3 um tissue sections. After deparaffinization, blocking antibodies (PBS containing 5% normal donkey or goat serum and 0.3% Triton X-100) are incubated for 1 hour at room temperature, and washed with PBS Then incubate the primary antibody (CD39, CD41, […]-ATF2 or […]-CREB) overnight in a 4 C dark humidified box. Then, after washing with PBS, incubate the secondary antibodies (goat anti-mouse IgG1 combined with AF488 and goat anti-rabbit IgG combined with Cy3) for 1 hour at room temperature, and then incubate the anti-quencher containing DAPI. Then, use the Lycra automatic inverted fluorescence microscope to observe and take pictures (20×0.75), and use the […] image analysis software to process the brightness, luminosity, contrast and color balance of the image to restore the image as much as possible. For each observation condition, 4-5 areas in each mucosal section were randomly selected for observation, and the CD41 aggregation (fluorescence diameter greater than 7 μm) was measured and counted using the card X image analysis software.

Data set [3] concerns CD39 expression in CD8+ T cells. As to the kind of experiment: CD39 expression during CD8+ T cell activation. The class given is cell-based. Conditions: dose-dependent manner.
Data set [4] concerns HEK 293T cells stably transfected with the cAMP reporter gene GloSensor-22F cAMP plasmid. As to the kind of experiment: cAMP reporter assay (GloSensor-22F cAMP plasmid). The class given is cell-based. The following applies: HEK 293T reporter cells; 3 independent experiments; forskolin as positive control. An excerpt: FIG. 4: Highly inflammatory macrophage and dendritic cell (DC) infiltration in colitis and IBD patients compared to control subjects. […] The red and navy blue dots represent individual genes that pass the P value (≤0.05) and log 2 (Fold Change) (red, ≥1; navy blue, ≤−1) threshold. […] Forskolin, which increases the concentration of cAMP by activating adenylate cyclase, was used as a positive control. […] Colonic mucosa sections were stained with anti-CD68 to mark macrophages, and stained with NLRP3 and ASC for inflammasome. […] The P value was calculated using the Mann-Whitney U test, *, P<0.05****, P<0.0001. (D) Heat map showing the relative expression of colitis/IBD risk genes in myeloid cells.
In general terms: In a reporter assay the amount or activity of a reporter protein is the signal.

The subject of data set [5] is platelet aggregation (CD41 clusters) in the colonic mucosa. As to the kind of experiment: Immunofluorescence of colonic mucosa before and after treatment: platelet aggregation (CD41 clusters). The class given is in vivo, human. The following applies: children, after vs before dipyridamole treatment. Here is the method:
(§1) Use formalin-fixed and paraffin-embedded paraffin blocks to prepare 3 um tissue sections. After deparaffinization, blocking antibodies (PBS containing 5% normal donkey or goat serum and 0.3% Triton X-100) are incubated for 1 hour at room temperature, and washed with PBS Then incubate the primary antibody (CD39, CD41, pT71-ATF2 or pS133-CREB) overnight in a 4 C dark humidified box. Then, after washing with PBS, incubate the secondary antibodies (goat anti-mouse IgG1 combined with AF488 and goat anti-rabbit IgG combined with Cy3) for 1 hour at room temperature, and then incubate the anti-quencher containing DAPI. Then, use the Lycra automatic inverted fluorescence microscope to observe and take pictures (20×0.75), and use the Lycra X image analysis software to process the brightness, luminosity, contrast and color balance of the image to restore the image as much as possible. For each observation condition, 4-5 areas in each mucosal section were randomly selected for observation, and the CD41 aggregation (fluorescence diameter greater than 7 μm) was measured and counted using the card X image analysis software.

Data set [6] relates to subjects with colitis confirmed by endoscopy and subjects with undefined IBD (IBDU). As to the kind of experiment: Clinical trial of dipyridamole in 9 children with endoscopy-confirmed colitis or undefined IBD (Table 6). In kind it is in vivo, human. An excerpt:
The inventors also conducted clinical trial studies in subjects with colitis confirmed by endoscopy and subjects with undefined IBD (IBDU) (Table 6).
In Table 6, PLT stands for platelet count, HGB stands for hemoglobin, and ALB stands for albumin.

Data set [7] deals with DSS-induced acute colitis. In words: DSS-induced acute colitis model. The class given is in vivo, C57BL/6J mice. As for the experimental part: Male C57BL/6J mice (20-22 g), six to eight weeks old, were purchased from Guangzhou University of Traditional Chinese Medicine. The mice were given regular food and water before the experiment. Weight-matched mice were used in all studies Animal research was approved by the Animal Care and Utilization Committee of Guangzhou Medical University (permit number: 2019-471) and was conducted in accordance with institutional guidelines.
The control mice were given regular food and water. The mice were monitored daily and if the weight loss exceeded 20%, they were euthanized.
For hematoxylin and eosin (H&E) staining, the colon was fixed in 4% paraformaldehyde (PFA) for 24 hours and embedded in paraffin. Prepare sections (3 μm) and deparaffinize before staining
To detect platelet aggregation in colon slices, the tissue was fixed in 4% PFA for 24 hours, cryoprotected in 30% sucrose for 48 hours, and then embedded in an Optimal Cutting Temperature (O.C.T.) compound. The frozen sections (5 μm) were washed, blocked with 10% goat serum, and incubated with anti-mouse CD41-FITC (133903, BioLegend, CA, USA) at 4° C. overnight.
After washing with PBS to remove unbound antibodies, the sections were fixed with […] anti-fading fixation medium (H-1200, Vector Laboratories, CA, USA) with DAPI for nuclear staining The immunofluorescence staining and image processing were performed as described above. Platelet aggregates are defined as CD41+ clusters (diameter >7 μm). Leica X image analysis software (Leica, Hamburg, Germany) and ImageJ software (National Institutes of Health, Maryland, USA) were used to count and analyze the number of CD41+ clusters per square millimeter. For each colon section, platelet aggregation in 5 randomly selected areas was recorded.
In order to analyze the expression of cytokines, the residual mesenteric fat in the colon was removed, weighed and dispersed in a single cell suspension with 1 mL of PBS. After centrifugation at 1000×g for 10 minutes at 4° C., the supernatant was taken to determine the concentration of TNF-α, IL-1β and IL-6 by ELISA.

Data set [8] concerns children with colitis. As to the kind of experiment: Clinical trial of dipyridamole in children with colitis (Table 5, 23 patients). The class given is in vivo, human. The text has this: In the following, it is investigated whether the cAMP activation pathway regulates CD39 expression in T cells. […] The clinical trial was approved by the Ethical Review Committee of Guangzhou Women and Children's Medical Center and registered in the China Clinical Trial Registration Center (ChiCTR1800019803). All patients or family members signed an informed consent form.

Data set [9] deals with CD39 in colonic intraepithelial T cells. In words: CD39 expression of immune cells in DSS colitis model (flow cytometry). In kind it is in vivo, mice. Here is the method:
From the second day of treatment, DSS was added to drinking water (2.5%) for 7 days. The control mice were given regular food and water. In order to analyze colon immune cells, the present invention harvests the colon and removes excess fat. After washing with ice-cold PBS, the colon was cut into pieces approximately 0.3-0.5 cm in length. After gentle rotation in the dissociation solution (HBSS without Ca/Mg, with 5 mM EDTA and 2% FBS) at 37° C. for 40 minutes, the intraepithelial lymphocytes (IEL) were pelleted, washed and resuspended in staining buffer (PBS 2% FBS). The remaining undigested colon tissue samples were gently rotated in the digestion solution (RPMI1640 containing 2% FBS, 2 mg/mL collagenase IV, 0.4 U/mL dispase and 1 μg/mL DNase) at 37° C. for 45 minutes. Pellet lamina propria lymphocytes (LPL), wash and resuspend in staining buffer. T cell plates (CD45-APC-Cy7, CD3-BV711, […]-Cy7, CD8-BV785, γδT-BV421 and CD4-APC) or myeloid plates (MHC II-BV550, CD11b-BV510 and CD39-PE-Cy7) were stained on ice for 30 minutes, and then analyzed on a FACSAria SORP flow cytometer (BD Science).
Background: A flow cytometer gives signals particle by particle.

Data set [10] deals with CD39. In words: Immunofluorescence of colonic mucosa before and after treatment: CD39 expression. In kind it is in vivo, human. Here is the method: as §1
Data set [11] has as its system TNF-α in monocytes and macrophages. In words: TNF-α expression in monocytes and macrophages in vitro. The class given is cell-based. The following applies: in vitro and in vivo.
Data set [12] deals with children with colitis or IBD. As to the kind of experiment: Children with colitis or IBD treated with methylprednisolone or anti-TNF-α antibody: colonoscopy and clinical status. The class given is in vivo, human.
Where [13] appears, read: dipyridamole 10 mg/kg twice a day vs DSS alone, 3% DSS.
[14] abbreviates: dipyridamole 10 mg/kg vs DSS alone.
Setting [15] is: children, after vs before dipyridamole (n=7), FIG. 7H.

Entries after “also recorded” stand apart in the source; their conditions may differ.

Here are results for three molecules from US20220260566A1, “IMMUNITY MECHANISM AND THERAPEUTIC DRUG FOR GASTROINTESTINAL DISEASES” (GUANGZHOU WOMEN AND CHILDREN'S MEDICAL CENTER, priority 2018, published 2022).

Regarding `C[C@H]1C[C@@H]2[C@H]([C@@H](O)C[C@@]3(C)[C@H]2CC[C@]3(O)C(=O)CO)[C@@]2(C)C=CC(=O)C=C12` [methylprednisolone], in data set [1], the “macrophage invasion in colonic mucosa” value is reported as “no effect” and the PDE4B entry is “no effect”.
Consider `OCCN(CCO)c1nc(N2CCCCC2)c2nc(N(CCO)CCO)nc(N3CCCCC3)c2n1` [dipyridamole], for which, in data set [2], the “co-localized activated transcription factors ATF2 and CREB with CD39 in colonic mucosa” value is “increased; also recorded: enhanced”. In [3], the “CD39 expression during CD8+ T cell activation” value is recorded as “significantly increased”. In addition, the “cytoplasmic cAMP concentration” value in data set [4] is “significantly increase”. The “platelet aggregation in the colonic mucosa (CD41 clusters)” value in data set [5] is “significantly reduced”. Further, the “clinical, endoscopic and histological severity scores” value in data set [6] (after vs before dipyridamole (FIG. 7E, Table 6)) is “significantly improved”. Besides, the adverse reactions entry in data set [6] (dipyridamole 3-5 mg/kg/day for 8 to 12 weeks) was “No obvious adverse reactions”. Moreover, in data set [7] (setting [13]), the body weight entry is “significantly increased” and the colon length result is listed as “significantly increased”. In addition, in data set [7] (setting [14]), the “epithelial integrity and structure (HE stained colon sections)” value was “improved”; the “platelet aggregation in colonic mucosa (CD41+ clusters)” value was “reduced”. For the same molecule, the “TNF-α expression in colon mucosa” value in data set [7] (dipyridamole vs DSS alone, ELISA) is given as “reduced”. In [1] (setting [15]), the “TNF-α expression in colonic mucosa” value is “significantly reduced” and the “macrophage infiltration in colonic mucosa” value is “significantly reduced”. For the same molecule, in data set [1], the PDE4B result is on record as “inhibited”. In addition, the “Severity score, Post-treatment, median” value in [8] (after dipyridamole 3-5 mg/kg/day, treatment duration median 4 (2-12) weeks, 23 children, range 0-5, P < 0.0001 vs pre-treatment) worked out at 1. Further, the “Platelet counts, Post-treatment, median” value in [8] (after dipyridamole 3-5 mg/kg/day, 23 children, range 217-497, reference range 140-440, P = 0.0001 vs pre-treatment) is recorded as 296 10^9/L. The “clinical severity score after treatment” value in data set [8] (after vs before dipyridamole (FIG. 3d)) was “significantly reduced”. In data set [8] (after vs before dipyridamole (FIG. 3d, 3e)), the “colon lining (colonoscopy appearance)” value is recorded as “significantly improved”. In addition, in data set [8] (baseline before dipyridamole, 23 children, range 4-14, scoring criteria of Table 4), the “Severity score, Pre-treatment, median” value was 9. The “Platelet counts, Pre-treatment, median” value in data set [8] (baseline before dipyridamole, 23 children, range 235-790, reference range 140-440) is 370 10^9/L. In data set [8] (children with colitis, dipyridamole 3-5 mg/kg/day), the adverse reactions result is “no reports of adverse reactions”. In addition, in data set [9] (dipyridamole 5 mg/kg or 50 mg/kg for 8 days, 2.5% DSS, dose-dependent manner), the “CD39 expression in colonic epithelial CD4, CD8 and γδT cells” value is listed as “significantly increased”. For the same molecule, the “expression of CD39 in CD4, CD8 and γδT cells” value in data set [9] (intraperitoneal injection of dipyridamole at 50 mg/kg) was “significantly increased”. In addition, the “expression of CD39 in CD8 and CD4 T cells and macrophages of colonic mucosa” value in data set [10] (children, after vs before dipyridamole treatment) is “increase”. In addition, in data set [11], the “expression of TNF-α in monocytes and macrophages” value was “inhibit”.
As for “anti-TNF-α: Anti-TNF-α drug (Infliximab), anti-TNF-α antibody biologic used to treat colitis and IBD”, in data set [12] (after vs before treatment, FIG. 6B), the “appearance of the colon (colonoscopy)” value was “improved”. Besides, the “clinical status / clinical symptoms” value in [12] (patients with inflammatory bowel disease, for methylprednisolone some patients only) is given as “improved”. Also, the “macrophage invasion in colonic mucosa” value in data set [1] was “no effect”. In addition, in [10] (children with colitis or IBD, after vs before methylprednisolone (n=5) or anti-TNF-α (n=6), FIG. 6C), the “expression of CD39 (CD39 IET) in colonic mucosa” value is “no effect”.
